Legend:
Proteasom = assay: Proteasome activity (suc-LLVY-MCA hydrolysis) in lysate of treated fibroblasts; format: cell-based, menschlich
Description: (§1) Dermale Fibroblasten (isoliert aus menschlicher Vorhaut) wurden bei 37°C und 5 Vol.-% CO2 mit Dulbecco's Minimal Essential Medium High Glucose unter Zusatz von 1 Gew.-% Glutamax, 1 Gew.-% Penicillin/Streptomycin und 10 Gew.-% fetalem Kälberserum kultiviert. Zur UV-A Bestrahlung mittels eines Teilkörperbestrahlungshimmels Typ Sellamed 2000 (Dr. Sellmeier; Bestrahlungsspektrum: 340-400 nm, Maximum: 360-380 nm) wurden die Zellen in Petrischalen ausplattiert (ca. 3,8 x 10^4 Zellen/cm^2; zuzüglich 2 Tage Wachstum, danach noch subkonfluent), das Zellmedium abgesaugt, die Zellen einmal mit PBS gewaschen und die UV-A Bestrahlung anschließend in PBS durchgeführt (Dosierung über Zeitintervall bis zu 14min bei […]). Nach UV-A Bestrahlung und Entfernung des PBS wurden die Zellen wieder mit Zellmedium versetzt und bis zur Zellernte bei 37°C, 5 Vol.-% CO2 aufbewahrt. Nach Zelltrypsinierung und -schabung erfolgte unter Zusatz von hypotonem Salzpuffer (10 mM HEPES, 24 mM KCl, 10 mM MgCl2, pH 7,5) und Anwendung der Frier-Tau-Technik die Herstellung des Zelllysats. Nicht lysierte Zellen sowie Membranen und Zellkerne wurden durch zehnminütige Zentrifugation bei 14000 rpm und 4°C abgetrennt.
(§2) Getestete Substanzen: • Natriumascorbylphosphat (0,025 mg/ml), BASF, entsprechend einem Aktivsubstanzgehalt in der Testlösung von 0,0025 Gew.-% • Hypotaurin 0,25 (mg/ml), Siber Hegner (entsprechend einem Aktivsubstanzgehalt in der Testlösung von 0,025 Gew.-%) • Kombuchka (7,5 mg/ml), Sederma (entsprechend einem Aktivsubstanzgehalt in der Testlösung von 0,02 - 0,053 Gew.-%) • Glistin (0,5 mg/ml), Exsymol (entsprechend 4,5 - 5,5' 10^-4 Gew.-% Glutamylamidoethylindol in der Testlösung) • Gingkoselect Phytosome (0,15 mg/ml), Indena (entsprechend 0,9 - 1,8 · 10^-5 Gew.-% […]-Aktivsubstanz in der Testlösung), wird vom Hersteller als Antioxidans ausgelobt.
Die Behandlung der Fibroblasten mit Antioxidantien erfolgte wie unter 2.3.3. Das Zelllysat wurde mit einem Puffer, der Tris-HCl (pH=7,8 bei 37°C), KCI, Mg-Acetat, MgCl2 und Dithiothreitol enthält, versetzt. Nach Zugabe von 10µl einer 2mM Stammlösung von suc-LLVY-MCA (N-Succinyl-Leucin-Leucin-Valin-Tyrosin-4-Methyl-cumaryl-7-amid) erfolgte eine 30-minütige Inkubation bei 37°C. Anschließend wurde die Fluoreszenz des Hydrolyseprodukts MCA (4-Methyl-cumaryl-7-amid) am Fluorimeter bestimmt (Anregungswellenlänge: 390 nm, Detektionswellenlänge: 460nm) und die MCA-Konzentration unter Verwendung einer Standardreihe bestimmt.

Dermale Fibroblasten = assay: Protein carbonyls in vitro (ELISA) in UV-A irradiated and non-irradiated fibroblasts; format: cell-based, menschlich; conditions: for durch UV-A-Bestrahlung induzierter Anstieg des Proteincarbonyl-Gehalts: summary in words of the fibroblast results
Description: as §1, §2
Fibroblasten wurden für 16 Stunden mit Antioxidantien-haltigem Medium versetzt. Nach UV-A Bestrahlung in PBS wurden die Fibroblasten anschließend wieder für 3 Stunden mit Antioxidantien-haltigem Medium versetzt und lysiert. Die Detektion der Proteincarbonyle erfolgte per ELISA Technik nach Buss et al. mit Veränderungen nach Sitte et al.. Das Zelllysat wurde mit Dinitrophenylhydrazin versetzt, und die gebildeten Hydrazone wurden mit Hilfe des primären Antikörpers Anti-Dinitrophenyl-Rabbit-IgG detektiert. Als sekundärer Antikörper wurde der Anti-Rabbit-IgG-Antikörper (Peroxidase-konjugiert) verwendet und die Menge des gebundenen, sekundären Antikörpers nach Entwicklung mit o-Phenylendiamin und Wasserstoffperoxid detektiert.

[1] = bestrahlt (UV-A), unbehandelt bestrahlt = 23,41, unbehandelt und unbestrahlt = 100 %
[2] = unbestrahlt, unbehandelt = 100 %
[3] = bestrahlt (UV-A), unbehandelt bestrahlt = 171,43, test concentrations: Natriumascorbylphosphat 0,025 mg/ml, Hypotaurin 0,25 mg/ml, Kombuchka 7,5 mg/ml, Glistin 0,5 mg/ml, Gingkoselect Phytosome 0,15 mg/ml

SMILES	Proteasomaktivität MW (%) (Proteasom; [1])	Proteasomaktivität MW (%) (Proteasom; [2])	Proteincarbonyl-Gehalt [%, relativ zum unbehandelten und unbestrahlten Zustand] (Dermale Fibroblasten; [3])	durch UV-A-Bestrahlung induzierter Anstieg des Proteincarbonyl-Gehalts (Dermale Fibroblasten)	Proteincarbonyl-Gehalt [%, relativ zum unbehandelten und unbestrahlten Zustand] (Dermale Fibroblasten; unbestrahlt, unbehandelt = 100)
NCCS(=O)O [Hypotaurin]	32,9%	144,37%	151,3%	reduzieren	128,32%
O=C1O[C@H]([C@@H](O)CO)C(O)=C1OP(=O)(O)O [Natriumascorbylphosphat]	33,36%	104,74%	124,18%	reduzieren	86,82%
NC(CCC(=O)O)C(=O)NCCc1c[nH]c2ccccc12 (stereo not drawn) [Glistin, Glutamylamidoethylindol]	24,94%	119,32%	139,96%	reduzieren	112,69%
